Measurements reported in patent EP4796125A1, “TREATMENT OF PATIENT WITH NEGATIVE P53 GENE MUTATION, POSITIVE KRAS GENE MUTATION AND POSITIVE BRCA MUTATION” (Ascentawits Pharmaceuticals, Ltd., priority 2023, dated 2025).

Key:
[1] = test system: H460 cells; test: Cell cycle G2/M arrest, PI staining and flow cytometry; format: cell-based
Procedure: • 1) H460/HPAF-II cell suspensions were added to a 24-well plate, with a cell density of 100000 cells/well and 995 µL of medium per well. • 2) The cells were cultured overnight in a 37°C, 5% CO2 incubator. • 3) Compound Treatment
24 hours after cell plating, according to the protocol, the experimental groups for each cell line were as follows: Monotherapy: 24 hours after cell plating, 5 µL of test compounds at different concentrations was added: 1% DMSO, 5 µM Nutlin-3, and 0.1 nM AST-3424. The plate was gently shaken to ensure even mixing, and then placed in a 37°C, 5% CO2 incubator.
• Cells were pretreated with AST-3424 for 2 hours, and then co-treatment with Nutlin-3 for 24 hours; • cells were pretreated with Nutlin-3 for 2 hours, and then co-treatment with AS -3424 for 24 hours; and • cells were co-treated with AST-3424 and Nutlin-3 for 24 hours. • 4) The cells were digested, centrifuged at 1000 g at 4°C, washed once with pre-cooled PBS, centrifuged at 1000 g at 4°C, and fixed with 1 mL of pre-cooled 70% ethanol at - 20°C overnight. • 5) The cells were centrifuged at 3000 g at 4°C, washed once with pre-cooled PBS (phosphate buffer), and centrifuged at 3000g at 4°C. PI staining solution was prepared. The cells were stained at 37°Cfor 30 minutes (protected from light), and stored in an ice bath (protected from light). The cells were detected using a flow cytometer on the same day, and the proportions of cells in different cell cycle phases was analyzed using FlowJo.
The remaining operations were similar to those of the above experiment, and the compound treatment was as follows: […]

[2] = test system: H460 cells; test: Applicant's previous cancer cell proliferation inhibition test; format: cell-based; settings: Homo sapiens, NCI-H460, single drug, applicant's previous test data
[3] = test system: HPAF-II cells; test: as above; format: cell-based; settings: Homo sapiens, single drug, applicant's previous test data
[4] = test system: γH2AX protein in H460 cells; test: WB detection of γH2AX protein (DNA double-strand damage); format: cell-based; settings: AST-3424 alone or with 5 µM Nutlin-3, dose-dependent (Figures 24-26)
Description: In the first experiment, the second experiment and the third experiment about the effect of the combination of AST-3424 and Nutlin-3 on Ser15-p53, Ser20-p53, Total p53, MDM2, and p21 proteins in H460 cells in Example 21, the applicant also performed WB detection of γH2AX protein.

[5] = test system: NCI-H460 cells; test: In vitro proliferation under normoxia conditions (CTG, 72 hours), Example 29; format: cell-based; settings: Homo sapiens, Table 25, normoxia, alone or + 3 µM AST-3021
Procedure: (§1) • 1) NCI-H460 and NCI-H460 P53KO # 1 cell suspensions were added to 96-well plate (100 µL per well), with a cell density of 2000 cells/well. • 2) The cells were cultured overnight in a 37°C, 5% CO2 incubator. • 3) Compound Treatment
(§2) Monotherapy: 24 hours after cell plating, each well was supplemented with 99.5 µL of growth medium. Then, 0.5 µL of test compounds at different concentrations was added. The plate was gently shaken to ensure even mixing, and then placed in a 37°C, 5% CO2 incubator.
(§3) Combination therapy: 24 hours after cell plating, each well was supplemented with 99 µL of growth medium. Then, 0.5 µL of the combination compound was added. The plate was gently shaken to ensure even mixing, and then placed in an incubator for 2 hours. Then, 0.5µL of test compounds at different concentrations was added. The plate was gently shaken to ensure even mixing, and then placed in a 37°C, 5% CO2 incubator. • 4) The cell plate was placed in the incubator for 72 hours. • 5) The cell plate to be tested was placed at room temperature and equilibrated for 30 minutes, and 100 µL of medium was discarded from each well. • 6) 25 µL of CTG reagent was added to each well, placed at a fast shaker to shake for 2 minutes, and placed at room temperature for 30 minutes (protected from light). • 7) The chemiluminescence signal value was read using a multifunctional microplate reader with a reading time of 1000 ms. • 8) IC50 (half maximal inhibitory concentration) values were calculated using GraphPad Prism 5 software.

[6] = test system: NCI-H460 P53KO #1 cells; test: as above; format: cell-based, human; settings: Table 25
Procedure: as §1, §2, §3

[7] = test system: PDX and CDX models with high expression of AKR1C3 enzyme; settings: WO2023/046060, Examples 1-9; cited from earlier work

C[C@H](OP(=O)(N1CC1)N1CC1)c1ccc([N+](=O)[O-])c(Oc2cccc(C(=O)N(C)C)c2)c1 [AST-3424]
cell cycle (G0/G1, S, G2/M phases) ([1]; 0.1 nM AST-3424, 5 µM Nutlin-3, 24 hours, combination: AST-3424 added first (Figure 9)): does not significantly alter the cell cycle
G2/M cell cycle arrest ([1]; 0.03-1 nM AST-3424 ± 5 µM Nutlin-3 (AST-3424 pre-treatment 2 hours), second experiment (Figure 10)): induces concentration-dependent G2/M cell cycle arrest
IC50 [2]: 0.47 nM
IC50 [3]: 107 nM
level of γH2AX protein [4]: upregulate
IC50 [5]: 0.43 nM
IC50 ([6]; Homo sapiens, NCI-H460 P53KO # 1, normoxia, alone or + 3 µM AST-3021): 5.45 nM
Ratio, knockout / wild-type ([6]; IC50 in NCI-H460 P53KO # 1 / NCI-H460): 12.67
anti-tumor effects [7]: significant anti-tumor effects
tolerability [7]: well tolerated
